Legend:
αllbβ3 integrin = molecular target: T1, αllbβ3 integrin (Homo sapiens, UniProt P05106+P08514); assay: ELISA: inhibition of binding of αllbβ3 integrin membrane preparation to coated extracellular matrix protein; conditions: human platelet membrane preparation
T1 construct: Human platelet membrane preparations were used as a source of αllbβ3 integrin; from tissue; host or cells: human platelets (membrane preparation)
Method in brief: (§1)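 Integrin sources were human platelet membrane preparations for αIIbβ3 and WM-115 cells for αVβ3, each preincubated with test compound. Binding to fibrinogen- or vitronectin-coated plates (10 µg/well) was quantified with an anti-integrin β3 antibody and an HRP-coupled secondary antibody using colorimetric detection.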

αVβ3 integrin = molecular target: T2, αVβ3 integrin (Homo sapiens, UniProt P05106+P06756); assay: ELISA: inhibition of binding of αVβ3 integrin (source WM-115 cell line) to coated extracellular matrix protein; conditions: WM-115 cell line as integrin source
T2 construct: the cell line WM-115 was used as a source of αVβ3 integrin; endogenous in cells; host or cells: WM-115 cell line
Method in brief: as §1

T1 sequence (P08514 32-887 limits assumed): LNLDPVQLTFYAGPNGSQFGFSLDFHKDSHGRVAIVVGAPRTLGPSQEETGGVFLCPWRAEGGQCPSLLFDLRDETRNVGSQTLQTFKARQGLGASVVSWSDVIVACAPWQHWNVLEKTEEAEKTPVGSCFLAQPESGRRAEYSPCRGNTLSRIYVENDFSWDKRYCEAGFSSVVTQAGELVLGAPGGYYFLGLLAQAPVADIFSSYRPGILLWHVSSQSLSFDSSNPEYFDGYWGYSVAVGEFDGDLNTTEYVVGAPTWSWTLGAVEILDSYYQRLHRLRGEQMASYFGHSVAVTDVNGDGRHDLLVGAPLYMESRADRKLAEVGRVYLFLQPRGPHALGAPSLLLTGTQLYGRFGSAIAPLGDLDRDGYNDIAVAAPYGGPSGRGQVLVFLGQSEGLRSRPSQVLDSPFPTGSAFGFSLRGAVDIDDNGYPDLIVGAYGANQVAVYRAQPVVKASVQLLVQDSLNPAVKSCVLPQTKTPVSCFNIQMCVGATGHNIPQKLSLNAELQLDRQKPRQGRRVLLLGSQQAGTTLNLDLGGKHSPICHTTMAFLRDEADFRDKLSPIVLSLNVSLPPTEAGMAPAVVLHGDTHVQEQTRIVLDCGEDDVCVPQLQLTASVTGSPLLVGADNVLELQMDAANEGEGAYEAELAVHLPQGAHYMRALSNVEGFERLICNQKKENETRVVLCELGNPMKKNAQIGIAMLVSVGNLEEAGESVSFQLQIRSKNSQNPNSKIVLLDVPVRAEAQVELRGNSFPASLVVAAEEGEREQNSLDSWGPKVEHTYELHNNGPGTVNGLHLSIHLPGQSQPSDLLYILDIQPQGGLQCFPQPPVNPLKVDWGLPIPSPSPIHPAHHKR
T1 sequence (P08514 891-1039 partner limits assumed): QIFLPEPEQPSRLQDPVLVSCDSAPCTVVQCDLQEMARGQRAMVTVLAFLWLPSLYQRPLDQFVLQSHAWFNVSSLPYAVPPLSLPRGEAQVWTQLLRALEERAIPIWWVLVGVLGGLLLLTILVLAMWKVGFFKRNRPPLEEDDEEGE
T1 sequence (P05106 27-788): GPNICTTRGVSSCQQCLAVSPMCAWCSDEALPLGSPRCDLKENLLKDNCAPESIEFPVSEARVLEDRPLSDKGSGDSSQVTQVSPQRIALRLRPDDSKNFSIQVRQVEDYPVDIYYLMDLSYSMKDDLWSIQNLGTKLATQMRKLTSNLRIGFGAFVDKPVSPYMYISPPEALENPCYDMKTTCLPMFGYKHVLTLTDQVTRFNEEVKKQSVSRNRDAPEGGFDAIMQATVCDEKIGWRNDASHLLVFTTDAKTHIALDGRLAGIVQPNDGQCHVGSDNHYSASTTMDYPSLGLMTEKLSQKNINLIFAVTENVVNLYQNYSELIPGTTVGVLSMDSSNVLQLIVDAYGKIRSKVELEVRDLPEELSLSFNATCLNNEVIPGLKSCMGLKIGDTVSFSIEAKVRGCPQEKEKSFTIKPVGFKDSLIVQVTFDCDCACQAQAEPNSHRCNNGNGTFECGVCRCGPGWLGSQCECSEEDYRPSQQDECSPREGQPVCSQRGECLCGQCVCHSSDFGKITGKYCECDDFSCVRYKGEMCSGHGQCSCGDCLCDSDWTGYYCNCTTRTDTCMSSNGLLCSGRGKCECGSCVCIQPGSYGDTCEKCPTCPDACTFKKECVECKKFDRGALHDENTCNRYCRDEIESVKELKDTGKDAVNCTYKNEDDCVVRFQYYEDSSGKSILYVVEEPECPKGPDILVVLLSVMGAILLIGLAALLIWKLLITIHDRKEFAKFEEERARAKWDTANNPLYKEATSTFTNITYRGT
T2 sequence (P06756 31-889 limits assumed): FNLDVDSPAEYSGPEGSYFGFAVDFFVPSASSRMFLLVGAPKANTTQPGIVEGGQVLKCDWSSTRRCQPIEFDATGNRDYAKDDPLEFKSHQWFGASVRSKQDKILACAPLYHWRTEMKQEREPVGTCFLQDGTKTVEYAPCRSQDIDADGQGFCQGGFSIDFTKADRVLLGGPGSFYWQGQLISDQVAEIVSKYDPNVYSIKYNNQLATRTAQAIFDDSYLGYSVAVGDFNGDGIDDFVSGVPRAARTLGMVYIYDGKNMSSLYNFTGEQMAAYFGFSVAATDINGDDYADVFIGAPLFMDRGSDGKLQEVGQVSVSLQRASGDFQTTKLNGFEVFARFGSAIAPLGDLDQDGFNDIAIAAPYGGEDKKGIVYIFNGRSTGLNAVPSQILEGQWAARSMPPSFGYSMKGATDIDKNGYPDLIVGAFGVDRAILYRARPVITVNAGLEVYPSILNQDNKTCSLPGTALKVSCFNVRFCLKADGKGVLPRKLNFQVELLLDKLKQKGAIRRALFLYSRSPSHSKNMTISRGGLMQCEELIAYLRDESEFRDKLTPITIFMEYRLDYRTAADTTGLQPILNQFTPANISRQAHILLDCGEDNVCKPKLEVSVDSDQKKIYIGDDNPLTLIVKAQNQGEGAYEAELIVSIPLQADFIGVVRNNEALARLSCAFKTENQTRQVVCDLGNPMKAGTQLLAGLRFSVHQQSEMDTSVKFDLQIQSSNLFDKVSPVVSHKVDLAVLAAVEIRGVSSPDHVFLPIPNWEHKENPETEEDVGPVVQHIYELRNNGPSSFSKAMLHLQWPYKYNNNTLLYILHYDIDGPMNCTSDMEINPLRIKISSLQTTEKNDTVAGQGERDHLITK
T2 sequence (P06756 891-1048 partner limits assumed): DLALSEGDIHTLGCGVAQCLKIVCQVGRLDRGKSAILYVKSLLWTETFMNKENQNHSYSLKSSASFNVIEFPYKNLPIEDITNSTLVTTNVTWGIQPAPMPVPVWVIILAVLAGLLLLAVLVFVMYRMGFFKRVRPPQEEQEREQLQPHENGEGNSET
T2 sequence (P05106 27-788): as the sequence (P05106 27-788) above

Compound	INHIBITION @ 250 uM RECEPTOR allBb3 SUBSTRATE FIBRINOGEN (αllbβ3 integrin)	INHIBITION 250 uM RECEPTOR allBb3 SUBSTRATE VITRONECTIN (αllbβ3 integrin)	INHIBITION 250 uM RECEPTOR aVb3 SUBSTRATE FIBRINOGEN (αVβ3 integrin)
Nc1cccc(COC2C(O)C(COCc3ccc(C(=O)O)cc3)OC(O)C2NC(=O)c2ccc(Cl)cc2)c1 (single isomer, unassigned) [Compound 81]	+ (36% to 60% inhibition at 250 micromolar)	+++ (81% to 100% inhibition at 250 micromolar)	+++ (81% to 100% inhibition at 250 micromolar)
Nc1cccc(C(=O)N[C@H]2C(O)O[C@H](COCC(=O)O)[C@@H](O)[C@@H]2OCc2ccccc2)c1 (single isomer, unassigned) [Compound 34]	+ (36% to 60% inhibition at 250 micromolar)	+++ (81% to 100% inhibition at 250 micromolar)	+++ (81% to 100% inhibition at 250 micromolar)
CCOC1OC(COCc2ccc(Br)cc2)C(O)C(OCc2cccc(N)c2)C1NC(=O)c1ccc(C(=O)O)cc1 (single isomer, unassigned) [Compound 72]	+ (36% to 60% inhibition at 250 micromolar)	+++ (81% to 100% inhibition at 250 micromolar)	+++ (81% to 100% inhibition at 250 micromolar)
CCOC1O[C@H](COCc2ccccc2)[C@@H](O)[C@H](OCc2ccc(C(=O)O)cc2)[C@H]1NC(=O)CCNC(=N)N (single isomer, unassigned) [Compound 58]	+ (36% to 60% inhibition at 250 micromolar)	+++ (81% to 100% inhibition at 250 micromolar)	+++ (81% to 100% inhibition at 250 micromolar)
COC1OC(COCC(=O)O)C(O)C(OCc2ccccc2)C1NC(=O)CCCN (single isomer, unassigned) [Compound 124]	++ (61% to 80% inhibition at 250 micromolar)	+++ (81% to 100% inhibition at 250 micromolar)	+ (36% to 60% inhibition at 250 micromolar)
CCOC1O[C@H](COCc2ccc(Br)cc2)[C@@H](O)[C@H](OCC(=O)O)[C@H]1NC(=O)CCNC(=N)N (single isomer, unassigned) [Compound 51]	++ (61% to 80% inhibition at 250 micromolar)	+++ (81% to 100% inhibition at 250 micromolar)	++ (61% to 80% inhibition at 250 micromolar)
COC1OC(COCc2cccc(N)c2)C(O)C(OCC(=O)O)C1NC(=O)c1ccc(Cl)cc1 (single isomer, unassigned) [Compound 9]	+ (36% to 60% inhibition at 250 micromolar)	+++ (81% to 100% inhibition at 250 micromolar)	+++ (81% to 100% inhibition at 250 micromolar)
COC1OC(COCc2ccc(Br)cc2)C(O)C(OCc2ccc(C(=O)O)cc2)C1NC(=O)CCNC(=N)N (single isomer, unassigned) [Compound 16]	+ (36% to 60% inhibition at 250 micromolar)	+++ (81% to 100% inhibition at 250 micromolar)	++ (61% to 80% inhibition at 250 micromolar)
COC(=O)c1ccc(COC2C(O)C(COCc3ccccc3)OC(OC)C2NC(=O)CCNC(=N)N)cc1 (single isomer, unassigned) [Compound 14]	+ (36% to 60% inhibition at 250 micromolar)	+++ (81% to 100% inhibition at 250 micromolar)	++ (61% to 80% inhibition at 250 micromolar)
CCOC1OC(COCC(=O)O)C(O)C(OCc2cccc(N)c2)C1NC(=O)c1ccc(Cl)cc1 (single isomer, unassigned) [Compound 76]	− (0% to 35% inhibition at 250 micromolar)	− (0% to 35% inhibition at 250 micromolar)	− (0% to 35% inhibition at 250 micromolar)
COC1OC(COCC(=O)O)C(O)C(OCc2ccccc2)C1NC(=O)C1CCC(CN)CC1 (single isomer, unassigned) [Compound 137]	+++ (81% to 100% inhibition at 250 micromolar)	+++ (81% to 100% inhibition at 250 micromolar)	++ (61% to 80% inhibition at 250 micromolar)
COCC1OC(OCc2ccccc2)C(NC(=O)CCNC(=N)N)C(OCc2ccc(C(=O)O)cc2)C1O (single isomer, unassigned) [Compound 97]	− (0% to 35% inhibition at 250 micromolar)	− (0% to 35% inhibition at 250 micromolar)	− (0% to 35% inhibition at 250 micromolar)
COC1OC(COCc2ccccc2)C(O)C(OCC(=O)O)C1NC(=O)c1cccc(N)c1 (single isomer, unassigned) [Compound 5]	++ (61% to 80% inhibition at 250 micromolar)	+++ (81% to 100% inhibition at 250 micromolar)	++ (61% to 80% inhibition at 250 micromolar)
Nc1cccc(COC[C@H]2OC(O)[C@H](NC(=O)CCC(=O)O)[C@@H](OCc3ccc(Br)cc3)[C@@H]2O)c1 (single isomer, unassigned) [Compound 46]	+ (36% to 60% inhibition at 250 micromolar)	+++ (81% to 100% inhibition at 250 micromolar)	+++ (81% to 100% inhibition at 250 micromolar)
COC1OC(COCC(=O)O)C(O)C(OCc2ccccc2)C1NC(=O)C1CCNCC1 (single isomer, unassigned) [Compound 136]	+++ (81% to 100% inhibition at 250 micromolar)	–	− (0% to 35% inhibition at 250 micromolar)
CC(=O)NC1C(OCc2ccccc2)OC(COCc2cccc(N)c2)C(O)C1OCC(=O)O (single isomer, unassigned) [Compound 95]	− (0% to 35% inhibition at 250 micromolar)	++ (61% to 80% inhibition at 250 micromolar)	− (0% to 35% inhibition at 250 micromolar)
CC(=O)NC1C(OCc2ccccc2)OC(COCc2cccc(N)c2)C(O)C1OCC(=O)O (single isomer, unassigned) [Compound 96]	− (0% to 35% inhibition at 250 micromolar)	+ (36% to 60% inhibition at 250 micromolar)	− (0% to 35% inhibition at 250 micromolar)
CCOC1C(O)C(COCc2cccc(N)c2)OC(OCc2ccccc2)C1NC(=O)CCC(=O)O (single isomer, unassigned) [Compound 88]	− (0% to 35% inhibition at 250 micromolar)	++ (61% to 80% inhibition at 250 micromolar)	− (0% to 35% inhibition at 250 micromolar)
COCC1OC(OCc2ccccc2)C(NC(=O)CCNC(=N)N)C(OCC(=O)O)C1O (single isomer, unassigned) [Compound 91]	+ (36% to 60% inhibition at 250 micromolar)	+ (36% to 60% inhibition at 250 micromolar)	− (0% to 35% inhibition at 250 micromolar)
CCOC1O[C@H](COCc2cccc(N)c2)[C@@H](O)[C@H](OCc2ccccc2)[C@H]1NC(=O)c1ccc(C(=O)O)cc1 (single isomer, unassigned) [Compound 37]	+ (36% to 60% inhibition at 250 micromolar)	+++ (81% to 100% inhibition at 250 micromolar)	+++ (81% to 100% inhibition at 250 micromolar)
COCC1OC(OCCNC(=N)N)C(NC(=O)c2ccccc2)C(OCc2ccc(C(=O)O)cc2)C1O (single isomer, unassigned) [Compound 114]	− (0% to 35% inhibition at 250 micromolar)	++ (61% to 80% inhibition at 250 micromolar)	− (0% to 35% inhibition at 250 micromolar)
COC1OC(COCc2cccc(N)c2)C(O)C(OCc2ccc(C(=O)O)cc2)C1NC(=O)c1ccccc1 (single isomer, unassigned) [Compound 18]	++ (61% to 80% inhibition at 250 micromolar)	+++ (81% to 100% inhibition at 250 micromolar)	+++ (81% to 100% inhibition at 250 micromolar)
